Measured values taken from patent US20230192661A1, “1, 4, 5, 6-TETRAHYDROPYRIMIDINE-2-AMINE DERIVATIVE” (UBE Corporation, priority 2020, published 2023).

How the values were obtained:
αvβ1 = molecular target: T1, αvβ1 (UniProt G3HZ55+P06756); experiment: αvβ1 cell adhesion inhibition test (αv-transfected CHO cells on human fibronectin); format: cell-based; settings: human fibronectin coating, 1 mM MnCl2, 1 hour, read-out: IC50 (rate of inhibition of cell adhesion, αvβ1)
T1 construct: expressed in transfected cells; host or cells: CHO cells deficient in α5 gene, transfected with αv gene
T1 sequence (P06756 31-889 limits assumed): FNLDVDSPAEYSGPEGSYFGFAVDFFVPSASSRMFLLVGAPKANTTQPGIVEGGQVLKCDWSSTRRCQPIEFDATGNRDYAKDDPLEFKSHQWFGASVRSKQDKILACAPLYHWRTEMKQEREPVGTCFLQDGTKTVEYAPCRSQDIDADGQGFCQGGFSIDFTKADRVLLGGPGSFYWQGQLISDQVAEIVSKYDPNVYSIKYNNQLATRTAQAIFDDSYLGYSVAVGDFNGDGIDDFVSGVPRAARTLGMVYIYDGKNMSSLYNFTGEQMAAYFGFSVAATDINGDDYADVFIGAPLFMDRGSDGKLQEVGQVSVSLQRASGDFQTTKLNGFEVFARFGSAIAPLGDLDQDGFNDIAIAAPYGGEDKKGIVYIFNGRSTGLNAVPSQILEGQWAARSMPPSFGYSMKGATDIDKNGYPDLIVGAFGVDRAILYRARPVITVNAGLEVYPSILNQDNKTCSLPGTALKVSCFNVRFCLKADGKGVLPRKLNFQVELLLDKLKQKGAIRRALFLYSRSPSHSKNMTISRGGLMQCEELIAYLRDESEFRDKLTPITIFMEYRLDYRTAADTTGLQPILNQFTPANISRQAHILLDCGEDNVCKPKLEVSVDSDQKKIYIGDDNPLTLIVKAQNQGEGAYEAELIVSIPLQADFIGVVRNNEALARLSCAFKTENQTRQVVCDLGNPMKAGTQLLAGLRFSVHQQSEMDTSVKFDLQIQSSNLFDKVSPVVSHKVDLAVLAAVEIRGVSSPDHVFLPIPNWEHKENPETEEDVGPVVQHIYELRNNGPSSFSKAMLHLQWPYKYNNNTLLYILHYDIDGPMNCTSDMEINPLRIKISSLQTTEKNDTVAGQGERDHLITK
T1 sequence (P06756 891-1048 limits assumed): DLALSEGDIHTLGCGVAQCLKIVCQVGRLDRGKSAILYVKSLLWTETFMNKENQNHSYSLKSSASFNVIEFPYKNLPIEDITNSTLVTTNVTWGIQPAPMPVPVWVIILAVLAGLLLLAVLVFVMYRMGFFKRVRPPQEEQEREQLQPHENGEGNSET
T1 sequence (G3HZ55 21-798): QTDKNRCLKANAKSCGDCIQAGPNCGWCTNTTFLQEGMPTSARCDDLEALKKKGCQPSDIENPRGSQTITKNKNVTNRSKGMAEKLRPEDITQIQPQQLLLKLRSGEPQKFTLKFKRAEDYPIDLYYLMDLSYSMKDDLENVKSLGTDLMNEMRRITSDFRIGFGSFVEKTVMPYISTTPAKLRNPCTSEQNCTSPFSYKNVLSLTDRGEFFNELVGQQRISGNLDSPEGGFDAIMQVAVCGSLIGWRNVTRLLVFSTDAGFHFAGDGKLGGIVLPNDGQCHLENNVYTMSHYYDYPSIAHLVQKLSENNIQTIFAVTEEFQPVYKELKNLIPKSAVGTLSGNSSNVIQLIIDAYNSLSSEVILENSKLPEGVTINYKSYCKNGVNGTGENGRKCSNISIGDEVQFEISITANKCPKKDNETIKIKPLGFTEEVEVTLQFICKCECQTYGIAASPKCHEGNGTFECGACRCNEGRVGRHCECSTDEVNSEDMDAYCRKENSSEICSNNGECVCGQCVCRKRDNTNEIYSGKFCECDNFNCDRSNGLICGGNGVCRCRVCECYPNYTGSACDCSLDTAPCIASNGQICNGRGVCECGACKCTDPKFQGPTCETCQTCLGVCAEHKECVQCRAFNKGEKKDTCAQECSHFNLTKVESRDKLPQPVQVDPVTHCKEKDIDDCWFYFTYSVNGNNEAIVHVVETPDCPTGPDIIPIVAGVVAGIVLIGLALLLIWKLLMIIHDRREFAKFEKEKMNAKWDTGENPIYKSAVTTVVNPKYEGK
Protocol: Test Example 1 was performed by partially modifying the method of Reed et al. (Sci Transl Med., 7 (288), 288ra79, 2015).
Human fibronectin (manufactured by Sigma-Aldrich Co. LLC, F0895) was prepared at 1.25 μg/mL with phosphate buffered saline (PBS), dispensed at 100 μL/well to a 96-well plate, and left standing overnight. The plate was washed with Hanks' balanced salt solution (HBSS), then subjected to blocking treatment with Dulbecco's modified Eagle medium (DMEM) containing 1% bovine serum-derived albumin (BSA) (FUJIFILM Wako Pure Chemical Corp., for cell culture, 017-22231), and used as a coated plate in the adhesion test.
αv-transfected cells (CHO cells deficient in α5 gene and transfected with αv gene) cultured in Ham's F-12 medium (FUJIFILM Wako Pure Chemical Corp., 087-08335) containing 10% fetal bovine serum (FBS), 1% penicillin/streptomycin/amphotericin B (manufactured by Thermo Fisher Scientific, Inc., 15240), 1 mM GlutaMAX Supplement (manufactured by Thermo Fisher Scientific, Inc., 35050), and 400 μg/mL hygromycin B (FUJIFILM Wako Pure Chemical Corp., 080-07683) were recovered and suspended in DMEM containing 1 mM MnCl2 (manufactured by Sigma-Aldrich Co. LLC, M1787) to prepare a cell suspension. A test compound dissolved in DMSO was added thereto.
The cell suspension of 1×10^6 cells/mL containing the test compound was added at 100 μL/well to the coated plate and left standing for 1 hour in a 5% CO2 incubator (37° C.). One hour later, the supernatant was removed, and the plate was washed with HBSS. The cells that adhered to each well in the plate were stained with crystal violet, and the cells were lysed, followed by absorbance measurement. Inhibition without substrate coating was defined as 100% inhibition, and inhibition when DMSO was added instead of the test compound was defined as 0% inhibition. The rate of inhibition of cell adhesion by the test compound was calculated according to the following expression.
Rate of inhibition of cell adhesion (%)=[1−{(Absorbance in the case of adding the test compound)−(Absorbance without substrate coating)}/{(Absorbance in the case of adding DMSO)−(Absorbance without substrate coating)}]×100
An IC50 value was calculated from the rate of inhibition of cell adhesion by the test compound. A: IC50<3 nM, B: 3 nM≤IC50<10 nM, C: 10 nM≤IC50<30 nM, D: 30 nM≤IC50<100 nM, or E: IC50≥100 nM.

[1] = tested on: TGF-β activation (phosphorylated SMAD3); experiment: TGF-β activation inhibition test (inhibition of SMAD3 phosphorylation in TFK-1 cells); format: cell-based; settings: 48 h, fibronectin-coated plate, cultured 2 days, read-out: IC50 (rate of inhibition of phosphorylated SMAD3)
Protocol: In Test Example 3, the inhibition of TGF-β activation by a compound was detected with the inhibition of SMAD3 phosphorylation as an index. In Test Example 3, the same reagents as in Test Example 1 were used unless otherwise specified.
Human fibronectin was prepared at 14 μg/mL with PBS and then dispensed at 50 μL/well to a 96-well plate. The plate was left standing at room temperature for 1 hour or longer, followed by the removal of the fibronectin solution. The plate was washed with PBS and used as a coated plate.
A test compound dissolved in DMSO was added to RPMI medium 1640 (manufactured by Thermo Fisher Scientific, Inc., 11875) containing 1% FBS and 1% penicillin/streptomycin/amphotericin B to prepare a medium containing the test compound having a concentration of two times the final concentration. This medium was added at 100 μL/well to the coated plate. TFK-1 cells (Cell Resource Center for Biomedical Research, Institute of Development, Aging and Cancer, Tohoku University) cultured in RPMI medium 1640 containing 10% FBS and 1% penicillin/streptomycin/amphotericin B were suspended in RPMI medium 1640 containing 1% FBS and 1% penicillin/streptomycin/amphotericin B to prepare a cell suspension of 1×10^6 cells/mL. The prepared cell suspension was further added at 100 μL/well and cultured for 2 days in a 5% CO2 incubator (37° C.).
Phosphorylated SMAD3 in the cells thus cultured for 2 days was measured using Phospho-SMAD3 (Ser423/425) cellular kit (manufactured by cisbio, 63ADK025), and a DeltaF value was calculated according to the calculation expression of the kit. Inhibition when 10 μM LY364947 (FUJIFILM Wako Pure Chemical Corp., 123-05981) was added instead of the test compound was defined as 100% inhibition, and inhibition when DMSO was added instead was defined as 0% inhibition. The rate of inhibition of phosphorylated SMAD3 by the test compound was calculated according to the following expression.
Rate of inhibition of phosphorylated SMAD3 (%)=[1−{(DeltaF value in the case of adding the test compound)−(DeltaF value in the case of adding 10 μM LY364947)}/{(DeltaF value in the case of adding DMSO)−(DeltaF value in the case of adding 10 μM LY364947)}]×100
An IC50 value was calculated from the rate of inhibition of phosphorylated SMAD3 by the test compound. A: IC50<10 nM, B: 10 nM≤IC50<50 nM, C: 50 nM≤IC50<100 nM, or D: IC50≥100 nM.

## COc1ccc([C@H](CC(=O)O)NC(=O)CNC(=O)c2cc(NC3=NCC(F)CN3)c3cn[nH]c3c2)cc1Br (stereo partly drawn) [Example 16-(b), (3S)-3-(3-bromo-4-methoxyphenyl)-3-(2-(4-((5-fluoro-1,4,5,6-tetrahydropyrimidin-2-yl)amino)-1H-indazole-6-carboxamido)acetamido)propanoic acid]
αvβ1
  IC50: < 3 nM
[1]
  IC50: 10 to 50 nM

## O=C(O)C[C@H](NC(=O)CNC(=O)c1cc(NC2=NCC(F)CN2)c2cn[nH]c2c1)c1cc(Cl)cc(Cl)c1 (stereo partly drawn) [Example 17-(b), (3S)-3-(3,5-dichlorophenyl)-3-(2-(4-((5-fluoro-1,4,5,6-tetrahydropyrimidin-2-yl)amino)-1H-indazole-6-carboxamido)acetamido)propanoic acid]
αvβ1
  IC50: < 3 nM
[1]
  IC50: < 10 nM

## O=C(O)C[C@H](NC(=O)CNC(=O)c1cc(NC2=NCC(F)CN2)c2cn[nH]c2c1)c1cc(Cl)cc(Br)c1 (stereo partly drawn) [Example 18-(b), (3S)-3-(3-bromo-5-chlorophenyl)-3-(2-(4-((5-fluoro-1,4,5,6-tetrahydropyrimidin-2-yl)amino)-1H-indazole-6-carboxamido)acetamido)propanoic acid]
αvβ1
  IC50: < 3 nM
[1]
  IC50: 10 to 50 nM

## O=C(O)C[C@H](NC(=O)CNC(=O)c1cc(NC2=NCC(F)CN2)c2cn[nH]c2c1)c1cc(Br)cc(Br)c1 (stereo partly drawn) [Example 19-(b), (3S)-3-(3,5-dibromophenyl)-3-(2-(4-((5-fluoro-1,4,5,6-tetrahydropyrimidin-2-yl)amino)-1H-indazole-6-carboxamido)acetamido)propanoic acid]
αvβ1
  IC50: < 3 nM
[1]
  IC50: < 10 nM

## O=C(O)C[C@H](NC(=O)CNC(=O)c1cc(NC2=NCC(F)CN2)c2cn[nH]c2c1)c1cc(Br)cc(I)c1 (stereo partly drawn) [Example 20-(b), (3S)-3-(3-bromo-5-iodophenyl)-3-(2-(4-((5-fluoro-1,4,5,6-tetrahydropyrimidin-2-yl)amino)-1H-indazole-6-carboxamido)acetamido)propanoic acid]
αvβ1
  IC50: < 3 nM
[1]
  IC50: < 10 nM

## O=C(O)C[C@H](NC(=O)CNC(=O)c1cc(NC2=NCC(F)CN2)c2cn[nH]c2c1)c1cc(Cl)cc(I)c1 (stereo partly drawn) [Example 21-(b), (3S)-3-(3-chloro-5-iodophenyl)-3-(2-(4-((5-fluoro-1,4,5,6-tetrahydropyrimidin-2-yl)amino)-1H-indazole-6-carboxamido)acetamido)propanoic acid]
αvβ1
  IC50: < 3 nM
[1]
  IC50: < 10 nM

## O=C(O)C[C@H](NC(=O)CNC(=O)c1cc(NC2=NCC(F)CN2)c2cn[nH]c2c1)c1cc(Cl)ccc1F (stereo partly drawn) [Example 22-(b), (3S)-3-(5-chloro-2-fluorophenyl)-3-(2-(4-((5-fluoro-1,4,5,6-tetrahydropyrimidin-2-yl)amino)-1H-indazole-6-carboxamido)acetamido)propanoic acid]
αvβ1
  IC50: 10 to 30 nM
[1]
  IC50: 10 to 50 nM

## O=C(O)C[C@H](NC(=O)CNC(=O)c1cc(NC2=NCC(F)CN2)c2cn[nH]c2c1)c1cc(Br)ccc1F (stereo partly drawn) [Example 23-(b), (3S)-3-(5-bromo-2-fluorophenyl)-3-(2-(4-((5-fluoro-1,4,5,6-tetrahydropyrimidin-2-yl)amino)-1H-indazole-6-carboxamido)acetamido)propanoic acid]
αvβ1
  IC50: < 3 nM
[1]
  IC50: 10 to 50 nM

## O=C(O)C[C@H](NC(=O)CNC(=O)c1cc(NC2=NCC(F)CN2)c2cn[nH]c2c1)c1cc(OC(F)F)cc(C(F)(F)F)c1 (stereo partly drawn) [Example 24-(b), (3S)-3-(3-(difluoromethoxy)-5-(trifluoromethyl)phenyl)-3-(2-(4-((5-fluoro-1,4,5,6-tetrahydropyrimidin-2-yl)amino)-1H-indazole-6-carboxamido)acetamido)propanoic acid]
αvβ1
  IC50: < 3 nM
[1]
  IC50: < 10 nM

## O=C(O)C[C@H](NC(=O)CNC(=O)c1cc(NC2=NCC(F)CN2)c2cn[nH]c2c1)c1cc(Cl)cc(OC(F)F)c1 (stereo partly drawn) [Example 25-(b), (3S)-3-(3-chloro-5-(difluoromethoxy)phenyl)-3-(2-(4-((5-fluoro-1,4,5,6-tetrahydropyrimidin-2-yl)amino)-1H-indazole-6-carboxamido)acetamido)propanoic acid]
αvβ1
  IC50: < 3 nM
[1]
  IC50: < 10 nM

## O=C(O)C[C@H](NC(=O)CNC(=O)c1cc(NC2=NCC(F)CN2)c2cn[nH]c2c1)c1cc(Br)cc(OC(F)F)c1 (stereo partly drawn) [Example 26-(b), (3S)-3-(3-bromo-5-(difluoromethoxy)phenyl)-3-(2-(4-((5-fluoro-1,4,5,6-tetrahydropyrimidin-2-yl)amino)-1H-indazole-6-carboxamido)acetamido)propanoic acid]
αvβ1
  IC50: < 3 nM
[1]
  IC50: < 10 nM

## O=C(O)C[C@H](NC(=O)CNC(=O)c1cc(NC2=NCC(F)CN2)c2cn[nH]c2c1)c1ccc(F)c(OC(F)F)c1 (stereo partly drawn) [Example 27-(b), (3S)-3-(3-(difluoromethoxy)-4-fluorophenyl)-3-(2-(4-((5-fluoro-1,4,5,6-tetrahydropyrimidin-2-yl)amino)-1H-indazole-6-carboxamido)acetamido)propanoic acid]
αvβ1
  IC50: < 3 nM
[1]
  IC50: < 10 nM

## O=C(O)C[C@H](NC(=O)CNC(=O)c1cc(NC2=NCC(F)CN2)c2cn[nH]c2c1)c1cc(OC(F)F)ccc1F (stereo partly drawn) [Example 28-(b), (3S)-3-(5-(difluoromethoxy)-2-fluorophenyl)-3-(2-(4-((5-fluoro-1,4,5,6-tetrahydropyrimidin-2-yl)amino)-1H-indazole-6-carboxamido)acetamido)propanoic acid]
αvβ1
  IC50: < 3 nM
[1]
  IC50: 10 to 50 nM

## O=C(O)C[C@H](NC(=O)CNC(=O)c1cc(NC2=NCC(F)CN2)c2cn[nH]c2c1)c1cc(OC(F)F)cc(-n2cccn2)c1 (stereo partly drawn) [Example 29-(b), (3S)-3-(3-(difluoromethoxy)-5-(1H-pyrazol-1-yl)phenyl)-3-(2-(4-((5-fluoro-1,4,5,6-tetrahydropyrimidin-2-yl)amino)-1H-indazole-6-carboxamido)acetamido)propanoic acid]
αvβ1
  IC50: < 3 nM
[1]
  IC50: < 10 nM

## O=C(O)C[C@H](NC(=O)CNC(=O)c1cc(NC2=NCC(F)CN2)c2cn[nH]c2c1)c1cc(OC(F)F)cc(OC(F)F)c1 (stereo partly drawn) [Example 30-(b), (3S)-3-(3,5-bis(difluoromethoxy)phenyl)-3-(2-(4-((5-fluoro-1,4,5,6-tetrahydropyrimidin-2-yl)amino)-1H-indazole-6-carboxamido)acetamido)propanoic acid]
αvβ1
  IC50: < 3 nM
[1]
  IC50: < 10 nM

## O=C(O)C[C@H](NC(=O)CNC(=O)c1cc(NC2=NCC(F)CN2)c2cn[nH]c2c1)c1cc(Cl)cc(OC(F)(F)F)c1 (stereo partly drawn) [Example 31-(b), (3S)-3-(3-chloro-5-(trifluoromethoxy)phenyl)-3-(2-(4-((5-fluoro-1,4,5,6-tetrahydropyrimidin-2-yl)amino)-1H-indazole-6-carboxamido)acetamido)propanoic acid]
αvβ1
  IC50: 3 to 10 nM
[1]
  IC50: < 10 nM
